Measured values taken from US20240329063A1, “METHOD FOR EVALUATING RESIDUAL PLATELET THROMBOTIC POTENTIAL IN PATIENTS UNDERGOING ANTIPLATELET TREATMENT” (Centro Cardiologico Monzino S.P.A., priority 2021, published 2024).

Assays:
P-selectin [1] = assay: ADP-induced P-selectin expression on platelets, flow cytometry, in vitro antagonist inhibition curves; format: cell-based, human
Protocol: (§1) The data obtained in patients without clopidogrel (No clopido) (n=39) are shown for comparison purposes. Panels C, D and E show the ADP concentration-response curves (black squares) and AR-C69931MX antagonist inhibition curves (white triangles) relating to TF, aGPIIbIIIa and P-selectin respectively. The EC50 of the agonist was calculated with a four-parameter logistic model, while the pA2s of the antagonist were calculated as described in Materials and Methods. The results are presented as percentage expression of the protein compared with baseline (s/b). The experiments were conducted at least three times. **p<0.01, ***p<0.001.
(§2) For the analysis of intracellular expression of TF, the cells were fixed for 2 hours with 1% paraformaldehyde, permeabilised for 10 min with an 0.1% solution of Triton X-100 PBS, and labelled for 15 min at room temperature in the dark with saturating concentrations of anti-TF and CD61 antibodies (PerCP; Becton Dickinson). […] All the data were analysed with Kaluza analysis software v1.5 (Beckman Coulter) and reported as percentage of positive cells or MFI (mean fluorescence intensity) of platelets positive to the activation marker.
(§3) A p-value of 0.05 was considered statistically significant. […] All curves shown are generated by informatics methods.

TF [2] = assay: ADP-induced TF expression on platelets, flow cytometry, in vitro antagonist inhibition curves; format: cell-based, human; conditions: ADP-stimulated platelets, spread as % CV, FIG. 1D-F
Protocol: as §1, §2, §3

aGPIIbIIIa [3] = assay: ADP-induced aGPIIbIIIa expression (PAC1 binding) on platelets, flow cytometry, in vitro antagonist inhibition curves; format: cell-based, human; conditions: ADP-stimulated platelets, spread as % CV, FIG. 1D-F
Protocol: as §1, §2, §3

P-selectin [4] = conditions: clopidogrel 75 mg/day; 10 μM ADP; all CAD patients, to the same extent regardless of the degree of VASP phosphorylation; FIG. 1C
Protocol: (§4) The in vitro experiments were conducted on 10 healthy volunteers (n=5 males and n=5 females; average age 39±6) who had not taken antiplatelet medicaments in the 10 days before the blood sample was taken. The effect of clopidogrel on TF expression was evaluated on 193 patients suffering from coronary artery disease (CAD) with myocardial infarction with non-ST elevation. […] The clinical characteristics of the patients enrolled are set out in Table 1.
(§5) The exclusion criteria were: age >80 years, valvular heart disease, atrial fibrillation, thyrotoxicosis, history of haemorrhagic diathesis, platelet disorder or thrombocytopenia, anticoagulant or thrombolytic treatment. A subject with severe congenital P2Y12 deficiency (person) was also studied.
(§6) Whole blood (WB) samples were taken with a 19 gauge needle without venous stasis in tubes containing sodium citrate (0.129 M, 1/10 volume/volume) (Vacutainer, Becton Dickinson), discarding the first 4 ml. The blood samples were then processed within 15 minutes of sample-drawing. The WB was centrifuged (room temperature, without centrifuge brake) at 100 g for 10 minutes to isolate the platelets. The platelet-rich plasma (PRP) was transferred to a new test tube and analysed with the Sysmex XE-2100 Automated Hematology Analyzer to determine the platelet count, mean platelet volume (MPV), platelet distribution […] (PDW), platelet recovery (defined as the percentage of the platelet count in the PRP to 100% of the number of platelets in the WB), and leukocyte contamination. Only the platelet preparations free of leukocyte contamination and with platelet recovery >70% were used for the subsequent thrombin generation analysis.
(§7) Surface expression of platelet activation markers was analysed by flow cytometry as previously described (Brambilla M, et al., Arterioscler Thromb Vasc Biol. 2008;28 (5): 947-953). Briefly, the samples were incubated/labelled with saturating concentrations of mouse monoclonal antibodies recognizing human tissue factor (HTF1; Thermo Fisher), P-selectin (APC; Becton Dickinson), PAC1 (FITC; Becton Dickinson), CD36 (PE; Becton Dickinson) and CD154 (FITC; Becton Dickinson). For the analysis of intracellular expression of TF, the cells were fixed for 2 hours with 1% paraformaldehyde, permeabilised for 10 min with an 0.1% solution of Triton X-100 PBS, and labelled for 15 min at room temperature in the dark with saturating concentrations of anti-TF and CD61 antibodies (PerCP; Becton Dickinson).

TF [5] = conditions: clopidogrel 75 mg/day, FIG. 1A
Protocol: as §4, §5, §6, §7

aGPIIbIIIa [6] = conditions: clopidogrel 75 mg/day; 10 μM ADP; FIG. 1B
Protocol: as §4, §5, §6, §7

Row | SMILES | pA2 for inhibition of P-selectin expression (P-selectin [1]; ADP-stimulated platelets, spread as % CV, FIG. 1D-F) | power (pA2) to inhibit P-selectin expression relative to that required to inhibit TF (P-selectin [1]; P-selectin versus TF) [times] | power (pA2) to inhibit P-selectin expression relative to that required to inhibit aGPIIbIIIa (P-selectin [1]; P-selectin versus aGPIIbIIIa) [times] | pA2 for inhibition of TF expression (TF [2]) | pA2 for inhibition of aGPIIbIIIa expression (aGPIIbIIIa [3]) | P-selectin expression (P-selectin [4]) | inhibition of TF exposed to stimulation with 10 μM ADP, poor responders versus good responders (TF [5]; patients with PRI >60% compared with PRI <60%) | inhibition of TF exposed to stimulation with 10 μM ADP, poor responders versus untreated subjects (TF [5]; patients with PRI >60% compared with subjects not treated with clopidogrel) | expression of activated glycoprotein IIbIIIa measured by the PAC1 bond (aGPIIbIIIa [6])
1 | CSCCNc1nc(SCCC(F)(F)F)nc2c1ncn2[C@@H]1O[C@H](COP(=O)(O)OP(=O)(O)C(Cl)(Cl)P(=O)(O)O)[C@@H](O)[C@H]1O [AR-C69931MX] | 11.5±3.1 | 150 | 6 | 9.33±2.1 | 10.7±0.29 | – | – | – | –
2 | COC(=O)[C@H](c1ccccc1Cl)N1CCc2sccc2C1 [clopidogrel] | – | – | – | – | – | significantly inhibited | significantly less than that measured in the good responders | not statistically different from that measured in the subjects not treated with clopidogrel | highest in the poor responders
